Peptide text beside a SMILES is read from it.
System: human-derived chondrocytes (C28/12, human chondrocyte cell line)
Assay: Cytotoxicity by CCK-8 assay
Assay type: cell-based
Conditions: C28/12 cells, different concentrations, 3 days, absorbance 450 nm
Description: The cytotoxicity of Peptide-1 or Peptide-2 upon addition to human-derived chondrocytes (C28/12, human chondrocyte cell line) was analyzed using a CCK-8 assay.
Specifically, human-derived chondrocytes were seeded in a 96-well plate at a density of 3×10^3 cells/well and cultured in DMEM medium (cat. 11995-065, Gibco) for 24 hours. […] Meanwhile, as a positive control group, one to which TGFβ1 (20 ng/ml) was added was used.

N[C@@H](CCC(=O)O)C(=O)N[C@@H](Cc1ccc(O)cc1)C(=O)N[C@@H](Cc1ccccc1)C(=O)N[C@@H](Cc1c[nH]c2ccccc12)C(=O)O [Peptide-1, Glu(E)-Tyr(Y)-Phe(F)-Trp(W)] (H-EYFW-OH)
toxicity in human-derived chondrocytes (CCK-8 activity): did not exhibit toxicity

CC(C)C[C@H](NC(=O)[C@@H](NC(=O)[C@@H](N)CCCNC(=N)N)[C@@H](C)O)C(=O)O [Peptide-2, Arg(R)-Thr(T)-Leu(L)] (H-Arg-Thr-Leu-OH)
toxicity in human-derived chondrocytes (CCK-8 activity): did not exhibit toxicity
